Source: BindingDB's records for doi:10.1007/bf00165806 (UniversitÄT Heidelberg, 1987)

Experiments:
Adenosine receptor A2a = Adenosine receptor A2a (Homo sapiens, UniProt P29274)
Adenosine receptor A1 = molecular target: T1, Adenosine receptor A1 (Bos taurus, UniProt P28190)
T1 sequence (P28190 whole entry): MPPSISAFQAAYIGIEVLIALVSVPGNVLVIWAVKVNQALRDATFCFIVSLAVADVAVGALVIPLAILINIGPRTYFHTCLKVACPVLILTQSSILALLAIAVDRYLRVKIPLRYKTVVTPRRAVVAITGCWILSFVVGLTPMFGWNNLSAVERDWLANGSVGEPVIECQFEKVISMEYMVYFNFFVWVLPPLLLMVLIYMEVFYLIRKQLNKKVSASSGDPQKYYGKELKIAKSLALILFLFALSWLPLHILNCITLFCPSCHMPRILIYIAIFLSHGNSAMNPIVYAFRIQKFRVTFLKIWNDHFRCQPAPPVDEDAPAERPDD

Adenosine receptor A2a, sequence (P29274 whole entry): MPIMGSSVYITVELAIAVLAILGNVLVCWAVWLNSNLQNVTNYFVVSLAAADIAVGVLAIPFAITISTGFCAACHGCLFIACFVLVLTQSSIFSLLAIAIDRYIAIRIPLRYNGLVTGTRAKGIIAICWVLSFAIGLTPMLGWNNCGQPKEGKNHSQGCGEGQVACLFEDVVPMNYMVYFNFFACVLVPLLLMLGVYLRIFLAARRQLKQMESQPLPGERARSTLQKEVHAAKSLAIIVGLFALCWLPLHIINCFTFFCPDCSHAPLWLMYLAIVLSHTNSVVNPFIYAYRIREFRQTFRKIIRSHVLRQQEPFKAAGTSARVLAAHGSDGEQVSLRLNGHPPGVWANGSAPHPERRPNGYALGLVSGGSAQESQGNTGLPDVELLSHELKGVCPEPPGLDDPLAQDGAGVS

Row | Compound | Ki (Adenosine receptor A2a) | Ki (Adenosine receptor A1)
1 | CCn1c(=O)c2[nH]c(-c3ccccc3)nc2n(CC)c1=O [1,3-Diethyl-8-phenyl-3,7-dihydro-purine-2,6-dione] | 210 nM | –
2 | CCCn1c(=O)c2[nH]c(C3CCCC3)nc2n(CCC)c1=O [DPCPX] | – | 0.07 nM
3 | CCCn1c(=O)c2[nH]c(-c3ccc(OCC(=O)NCCN)cc3)nc2n(CCC)c1=O [N-(2-Amino-ethyl)-2-[4-(2,6-dioxo-1,3-dipropyl-2,3,6,9-tetrahydro-1H-purin-8-yl)-phenoxy]-acetamide] | – | 0.08 nM
